Laboratory results reported in the supplement of paper PMC10307832.

Tests used:
Assay in all cases: relative viability (nuclei count vs DMSO), 5 days (fraction); higher = more cells survive
[1] = test system: 201T
Summary of the method: (§1)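 Each reported value is a median over duplicate plates. It expresses relative viability: treated-well nuclei count divided by vehicle-well nuclei count. Lung cancer cell lines in 1536-well plates were dosed by pin tool a day after seeding, alone with one drug or with a fixed anchor-drug dose plus five library-drug doses (not always all listed) in √10 steps, and nuclei were counted after 5 days.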

[2] = test system: BEN
Summary of the method: as §1

[3] = test system: CAL-12T
Summary of the method: as §1

[4] = test system: HCC-44
Summary of the method: as §1

[5] = test system: HCC-827
Summary of the method: as §1

[6] = test system: HOP-62
Summary of the method: as §1

[7] = test system: LCLC-103H
Summary of the method: as §1

[8] = test system: LCLC-97TM1
Summary of the method: as §1

[9] = test system: LXF-289
Summary of the method: as §1

[10] = test system: NCI-H1395
Summary of the method: as §1

[11] = test system: NCI-H1437
Summary of the method: as §1

[12] = test system: NCI-H1650
Summary of the method: as §1

[13] = test system: NCI-H1793
Summary of the method: as §1

[14] = test system: NCI-H1944
Summary of the method: as §1

[15] = test system: NCI-H2087
Summary of the method: as §1

[16] = test system: NCI-H2228
Summary of the method: as §1

[17] = test system: NCI-H2405
Summary of the method: as §1

[18] = test system: NCI-H3122
Summary of the method: as §1

[19] = test system: NCI-H322M
Summary of the method: as §1

[20] = test system: NCI-H647
Summary of the method: as §1

[21] = test system: NCI-H727
Summary of the method: as §1

[22] = test system: RERF-LC-KJ
Summary of the method: as §1

[23] = test system: SK-LU-1
Summary of the method: as §1

## CC1(C)CCC(c2ccc(Cl)cc2)=C(CN2CCN(c3ccc(C(=O)NS(=O)(=O)c4ccc(N[C@H](CCN5CCOCC5)CSc5ccccc5)c(S(=O)(=O)C(F)(F)F)c4)cc3)CC2)C1 [Navitoclax] + CC(=O)c1c(C)c2cnc(Nc3ccc(N4CCNCC4)cn3)nc2n(C2CCCC2)c1=O [Palbociclib] (partner 0.5 µM)
[1]; first compound 0.005 µM
  relative viability: 0.342
[1]; first compound 0.01581 µM
  relative viability: 0.347
[1]; first compound 0.05 µM
  relative viability: 0.362
[1]; first compound 0.1581 µM
  relative viability: 0.365
[1]; first compound 0.5 µM
  relative viability: 0.355
[2]; first compound 0.005 µM
  relative viability: 0.475
[2]; first compound 0.01581 µM
  relative viability: 0.525
[2]; first compound 0.05 µM
  relative viability: 0.462
[2]; first compound 0.1581 µM
  relative viability: 0.399
[2]; first compound 0.5 µM
  relative viability: 0.268
[3]; first compound 0.005 µM
  relative viability: 0.4
[3]; first compound 0.01581 µM
  relative viability: 0.445
[3]; first compound 0.05 µM
  relative viability: 0.409
[3]; first compound 0.1581 µM
  relative viability: 0.496
[3]; first compound 0.5 µM
  relative viability: 0.405
[4]; first compound 0.005 µM
  relative viability: 0.968
[4]; first compound 0.01581 µM
  relative viability: 0.919
[4]; first compound 0.05 µM
  relative viability: 0.947
[4]; first compound 0.1581 µM
  relative viability: 0.893
[4]; first compound 0.5 µM
  relative viability: 0.956
[5]; first compound 0.005 µM
  relative viability: 0.582
[5]; first compound 0.01581 µM
  relative viability: 0.528
[5]; first compound 0.05 µM
  relative viability: 0.374
[5]; first compound 0.1581 µM
  relative viability: 0.477
[5]; first compound 0.5 µM
  relative viability: 0.437
[6]; first compound 0.005 µM
  relative viability: 0.449
[6]; first compound 0.01581 µM
  relative viability: 0.442
[6]; first compound 0.05 µM
  relative viability: 0.429
[6]; first compound 0.1581 µM
  relative viability: 0.391
[6]; first compound 0.5 µM
  relative viability: 0.448
[7]; first compound 0.005 µM
  relative viability: 0.453
[7]; first compound 0.01581 µM
  relative viability: 0.487
[7]; first compound 0.05 µM
  relative viability: 0.486
[7]; first compound 0.1581 µM
  relative viability: 0.443
[7]; first compound 0.5 µM
  relative viability: 0.418
[8]; first compound 0.005 µM
  relative viability: 0.239
[8]; first compound 0.01581 µM
  relative viability: 0.215
[8]; first compound 0.05 µM
  relative viability: 0.166
[8]; first compound 0.1581 µM
  relative viability: 0.203
[8]; first compound 0.5 µM
  relative viability: 0.241
[9]; first compound 0.005 µM
  relative viability: 0.589
[9]; first compound 0.01581 µM
  relative viability: 0.658
[9]; first compound 0.05 µM
  relative viability: 0.547
[9]; first compound 0.1581 µM
  relative viability: 0.606
[9]; first compound 0.5 µM
  relative viability: 0.627
[10]; first compound 0.005 µM
  relative viability: 0.617
[10]; first compound 0.01581 µM
  relative viability: 0.664
[10]; first compound 0.05 µM
  relative viability: 0.674
[10]; first compound 0.1581 µM
  relative viability: 0.653
[10]; first compound 0.5 µM
  relative viability: 0.583
[11]; first compound 0.005 µM
  relative viability: 0.295
[11]; first compound 0.01581 µM
  relative viability: 0.317
[11]; first compound 0.05 µM
  relative viability: 0.2
[11]; first compound 0.1581 µM
  relative viability: 0.291
[11]; first compound 0.5 µM
  relative viability: 0.308
[12]; first compound 0.005 µM
  relative viability: 0.385
[12]; first compound 0.01581 µM
  relative viability: 0.456
[12]; first compound 0.05 µM
  relative viability: 0.315
[12]; first compound 0.1581 µM
  relative viability: 0.346
[12]; first compound 0.5 µM
  relative viability: 0.316
[13]; first compound 0.005 µM
  relative viability: 0.312
[13]; first compound 0.01581 µM
  relative viability: 0.281
[13]; first compound 0.1581 µM
  relative viability: 0.336
[13]; first compound 0.5 µM
  relative viability: 0.295
[14]; first compound 0.005 µM
  relative viability: 0.345
[14]; first compound 0.01581 µM
  relative viability: 0.364
[14]; first compound 0.1581 µM
  relative viability: 0.3
[14]; first compound 0.5 µM
  relative viability: 0.341
[15]; first compound 0.005 µM
  relative viability: 0.22
[15]; first compound 0.01581 µM
  relative viability: 0.244
[15]; first compound 0.1581 µM
  relative viability: 0.255
[15]; first compound 0.5 µM
  relative viability: 0.257
[16]; first compound 0.005 µM
  relative viability: 0.915
[16]; first compound 0.01581 µM
  relative viability: 0.986
[16]; first compound 0.1581 µM
  relative viability: 0.703
[16]; first compound 0.5 µM
  relative viability: 0.687
[17]; first compound 0.005 µM
  relative viability: 0.501
[17]; first compound 0.01581 µM
  relative viability: 0.562
[17]; first compound 0.05 µM
  relative viability: 0.562
[17]; first compound 0.1581 µM
  relative viability: 0.511
[17]; first compound 0.5 µM
  relative viability: 0.506
[18]; first compound 0.005 µM
  relative viability: 0.206
[18]; first compound 0.01581 µM
  relative viability: 0.164
[18]; first compound 0.05 µM
  relative viability: 0.225
[18]; first compound 0.1581 µM
  relative viability: 0.177
[18]; first compound 0.5 µM
  relative viability: 0.182
[19]; first compound 0.005 µM
  relative viability: 0.522
[19]; first compound 0.01581 µM
  relative viability: 0.534
[19]; first compound 0.05 µM
  relative viability: 0.476
[19]; first compound 0.1581 µM
  relative viability: 0.479
[19]; first compound 0.5 µM
  relative viability: 0.499
[20]; first compound 0.005 µM
  relative viability: 0.336
[20]; first compound 0.01581 µM
  relative viability: 0.359
[20]; first compound 0.05 µM
  relative viability: 0.24
[20]; first compound 0.1581 µM
  relative viability: 0.414
[20]; first compound 0.5 µM
  relative viability: 0.344
[21]; first compound 0.005 µM
  relative viability: 0.625
[21]; first compound 0.01581 µM
  relative viability: 0.602
[21]; first compound 0.05 µM
  relative viability: 0.67
[21]; first compound 0.1581 µM
  relative viability: 0.584
[21]; first compound 0.5 µM
  relative viability: 0.527
[22]; first compound 0.005 µM
  relative viability: 1.06
[22]; first compound 0.01581 µM
  relative viability: 1.01
[22]; first compound 0.05 µM
  relative viability: 1.14
[22]; first compound 0.1581 µM
  relative viability: 1.07
[22]; first compound 0.5 µM
  relative viability: 1.01
[23]; first compound 0.005 µM
  relative viability: 0.396
[23]; first compound 0.01581 µM
  relative viability: 0.508
[23]; first compound 0.05 µM
  relative viability: 0.337
[23]; first compound 0.1581 µM
  relative viability: 0.384
[23]; first compound 0.5 µM
  relative viability: 0.414
